Source: ChEMBL document CHEMBL2440076, “New triarylpyrazoles as broad-spectrum anticancer agents: design, synthesis, and biological evaluation” (Eur J Med Chem, 2013)

Key:
Format in all cases: functional
[1] = system: DU-145; assay: Growth inhibition of human DU145 cells assessed as cell growth at 5X10'-6 M after 48 hrs by sulforhodamine B assay; conditions: DU-145, 48 h, read-out: Activity
[2] = system: PC-3; assay: Growth inhibition of human PC3 cells assessed as cell growth at 3X10'-8 M after 48 hrs by sulforhodamine B assay; conditions: PC-3, 48 h, read-out: Activity
[3] = system: T47D; assay: Growth inhibition of human T47D cells assessed as cell growth at 3X10'-7 M after 48 hrs by sulforhodamine B assay; conditions: read-out: Activity
[4] = system: DU-145; assay: Growth inhibition of human DU145 cells assessed as cell growth at 3X10'-6 M after 48 hrs by sulforhodamine B assay; conditions: DU-145, 48 h, read-out: Activity
[5] = system: K562; assay: Growth inhibition of human K562 cells assessed as cell growth at 3X10'-6 M after 48 hrs by sulforhodamine B assay; conditions: K562, 48 h, read-out: Activity
[6] = system: SK-MEL-5; assay: Growth inhibition of human SK-MEL-5 cells assessed as cell growth at 3X10'-5 M after 48 hrs by sulforhodamine B assay; conditions: SK-MEL-5, 48 h, read-out: Activity
[7] = system: SK-MEL-5; assay: Growth inhibition of human SK-MEL-5 cells assessed as cell growth at 3X10'-7 M after 48 hrs by sulforhodamine B assay; conditions: SK-MEL-5, 48 h, read-out: Activity
[8] = system: UACC-257; assay: Growth inhibition of human UACC257 cells assessed as cell growth at 3X10'-5 M after 48 hrs by sulforhodamine B assay; conditions: UACC-257, 48 h, read-out: Activity
[9] = system: BT-549; assay: Growth inhibition of human BT549 cells assessed as cell growth at 3X10'-6 M after 48 hrs by sulforhodamine B assay; conditions: BT-549, 48 h, read-out: Activity
[10] = Growth inhibition of human NCI-ADR-RES cells assessed as cell growth at 3X10'-6 M after 48 hrs by sulforhodamine B assay; conditions: read-out: Activity
[11] = system: 786-0; assay: Growth inhibition of human 786-0 cells assessed as cell growth at 3X10'-5 M after 48 hrs by sulforhodamine B assay; conditions: 786-0, 48 h, read-out: Activity
[12] = system: SW-620; assay: Growth inhibition of human SW620 cells assessed as cell growth at 3X10'-8 M after 48 hrs by sulforhodamine B assay; conditions: SW-620, 48 h, read-out: Activity
[13] = system: K562; assay: Growth inhibition of human K562 cells assessed as cell growth at 3X10'-8 M after 48 hrs by sulforhodamine B assay; conditions: K562, 48 h, read-out: Activity
[14] = system: HCT-116; assay: Growth inhibition of human HCT116 cells assessed as cell growth at 3X10'-5 M after 48 hrs by sulforhodamine B assay; conditions: HCT-116, 48 h, read-out: Activity
[15] = system: CAKI-1; assay: Growth inhibition of human CAKI-1 cells assessed as cell growth at 3X10'-8 M after 48 hrs by sulforhodamine B assay; conditions: CAKI-1, 48 h, read-out: Activity
[16] = system: MDA-MB-435; assay: Growth inhibition of human MDA-MB-435 cells assessed as cell growth at 3X10'-5 M after 48 hrs by sulforhodamine B assay; conditions: MDA-MB-435, 48 h, read-out: Activity
[17] = system: K562; assay: Growth inhibition of human K562 cells assessed as cell growth at 3X10'-7 M after 48 hrs by sulforhodamine B assay; conditions: K562, 48 h, read-out: Activity

SMILES | growth at 5 µM [1] [%] | growth at 0.03 µM [2] [%] | growth at 0.3 µM [3] [%] | growth at 3 µM [4] [%] | growth at 3 µM [5] [%] | growth at 30 µM [6] [%] | growth at 0.3 µM [7] [%] | growth at 30 µM [8] [%] | growth at 3 µM [9] [%] | growth at 3 µM [10] [%] | growth at 30 µM [11] [%] | growth at 0.03 µM [12] [%] | growth at 0.03 µM [13] [%] | growth at 30 µM [14] [%] | growth at 0.03 µM [15] [%] | growth at 30 µM [16] [%] | growth at 0.3 µM [17] [%]
COc1cc(-c2nn(-c3cccc(NC(=O)Nc4cccc(C(F)(F)F)c4)c3)cc2-c2ccncc2)ccc1Cl | 14 |  |  |  |  |  |  |  |  |  |  |  |  |  |  |  | 
COc1cc(-c2nn(-c3cccc(NC(=O)Nc4ccc(Cl)c(C(F)(F)F)c4)c3)cc2-c2ccncc2)ccc1Cl |  | 95 | 95 | 23 | 12 | -94 | 87 | -53 | 40 | 3 | -43 | 100 | 105 | -63 | 94 | -50 | 100
O=C(Nc1cccc(-n2cc(-c3ccncc3)c(-c3ccc(Cl)c(O)c3)n2)c1)c1ccc(N2CCOCC2)c(C(F)(F)F)c1 | 46 |  |  |  |  |  |  |  |  |  |  |  |  |  |  |  | 
O=C(Nc1cccc(-n2cc(-c3ccncc3)c(-c3ccc(Cl)c(O)c3)n2)c1)Nc1ccc(Cl)c(Cl)c1 |  | 98 | 100 | 22 | 16 | -95 | 90 | -24 | 28 | 46 | 5 | 98 | 102 | -39 | 94 | -38 | 110
O=C(Nc1cccc(-n2cc(-c3ccncc3)c(-c3ccc(Cl)c(O)c3)n2)c1)Nc1cc(C(F)(F)F)cc(C(F)(F)F)c1 | 5 |  |  |  |  |  |  |  |  |  |  |  |  |  |  |  | 
O=C(Nc1cccc(-n2cc(-c3ccncc3)c(-c3ccc(Cl)c(O)c3)n2)c1)Nc1cccc(C(F)(F)F)c1 |  | 96 | 97 | 33 | 22 | -90 | 99 | -18 | 79 | 39 | 7 | 95 | 92 | -34 | 94 | -19 | 101
